Values of other authors in patent publication US12268662B2, “Formulations comprising carbachol and brimonidine to enhance anti- presbyopia effects” (VISUS THERAPEUTICS, INC., priority 2021, dated 2025).

Experiments:
[1] = not given; remark: listed apart in the source
[2] = not given; remark: listed apart in the source

For `C[N+](C)(C)CCOC(N)=O` [Carbachol], the pKa is listed as “about 15”, the solubility [1] is listed as 1 gm/mL and the “log P” value [2] is listed as −3.78.
